Values quoted from earlier work as cited in patent US11167002B2, “Pharmaceutical composition for the treatment of malignant neoplasms including sarcoma, cancers of liver, lung, bladder, blood and cervical, treatment of infectious diseases and type 2 diabetes” (priority 2019, dated 2021).

Assays:
[1] = system: Gram-negative and Gram-positive bacteria, including multidrug-resistant enterotoxigenic strains of Escherichia coli; conditions: allicin in pure form
[2] = system: Entamoeba histolytica and Giardia lamblia; conditions: allicin in pure form
[3] = allicin in pure form
[4] = system: Candida albicans; conditions: allicin in pure form

Compound: C=CCS[S+]([O-])CC=C (stereo not shown) [Allicin]
- antibacterial activity [1]: antibacterial activity
- antiparasitic activity [2]: antiparasitic activity
- antiviral activity [3]: antiviral activity
- antifungal activity [4]: antifungal activity
